Reference: ChEMBL document CHEMBL1122907, “Synthesis of 1-[[2-hydroxy-1-(hydroxymethyl)ethoxy] methyl]-5-benzyluracil and its amino analogue, new potent uridine phosphorylase inhibitors with high water solubility” (J Med Chem, 1985)

Assay: Binding affinity was determined against uridine phosphorylase in Sarcoma 180 cells
Type: cell-based

Point of comparison: O=c1[nH]c(=O)n(COCCO)cc1Cc1ccccc1, Ki 98 nM. Against it:
- NCC(CO)OCn1cc(Cc2ccccc2)c(=O)[nH]c1=O (stereo not drawn) — 4.9-fold lower, 20 nM
- O=c1[nH]c(=O)n(COC(CO)CO)cc1Cc1ccccc1 — the same, 98 nM
